≈ marks a conversion by molar mass, not a printed value.
Assays:
[1] = test system: IL1-β, IL-6, TNF-α, CINC-1, CINC-3, IL-10 and TGF-β; test: Dermal cytokine analysis (ELISA) of burn wound skin; assay type: in vivo, Sprague-Dawley rats
Procedure: After drying, an occlusive dressing of sterile […] […] Stock nanoemulsion […] […] The occlusive dressing and TELFA was removed. […] Homogenates were centrifuged at 3000 g for 5 minutes and the supernatants collected and stored frozen at -80° C. until use. Rat IL1-β, IL-6, […]-10 and TGF-β were measured by sandwich enzyme-linked immunosorbent assay (ELISA) using antibodies and reagents from R&D Systems, Inc. (Minneapolis, Minn.). The assay was carried out in 96-well microplates (Immunoplate Maxisorb, Nunc, Neptune, N.J.) according to the kit instructions and samples were read using a microplate reader (Biotek Instruments, Winooski, Vt.) at 450 nm with a wavelength correction of 540 nm. Cytokine concentrations were determined using the plate reader software and a 7-point standard curve. Results were adjusted for previous dilution and expressed as pg/mL.

Myeloperoxidase = test: Detection of neutrophil sequestration (myeloperoxidase assay); assay type: in vivo, Sprague-Dawley rats; settings: infected burn wound, 32 hours post-injury
Procedure: The occlusive dressing and TELFA was removed.
100 mg of skin tissue was mechanically homogenized in 1 mL ice cold potassium phosphate buffer consisting of 115 mM monobasic potassium phosphate (Sigma Aldrich, Milwaukee, Wis.). Homogenates were centrifuged at 3000 g for 10 min at 4° C., the supernatants were removed and the pellets were re-suspended in 1 mL C-TAB buffer consisting of dibasic potassium phosphate, cetyltrimethylammonium bromide, and acetic acid (Sigma Aldrich, Milwaukee, Wis.). The suspensions were sonicated (Branson Sonifier 250, Danbury, Conn.) on ice for 40 seconds. Homogenates were centrifuged at 3000 g for 10 min at 4° C. and the supernatant collected. Supernatants were incubated in 60° C. water bath for 2 hours (Shaker Bath, 2568; Forma Scientific, Marietta, Ohio). Samples were stored at −80° C. until needed or assayed immediately.

Acinetobacter baumannii [2] = test: MIC determination, CLSI microdilution with alamar blue; assay type: cell-based; settings: Acinetobacter baumannii (n = 5); nanoemulsions in the presence of 5 mM EDTA; in µg/mL
Acinetobacter baumannii [3] = test: MIC and MBC determination (CLSI, alamar blue)
Burkholderia cenocepacia = test: MIC and MBC determination (CLSI, alamar blue), CF isolates
Stenotrophomonas strains = test: Checkerboard synergy study (FIC/FBC index); assay type: cell-based, Stenotrophomonas maltophilia; settings: in combination with P4075EC+EDTA; for Overall synergy result: Stenotrophomonas
Pseudomonas aeruginosa [4] = test: MIC and MBC determination (CLSI, alamar blue), CF isolates
Burkholderia strains = test: Checkerboard synergy study (FIC/FBC index); assay type: cell-based, Burkholderia cenocepacia; settings: in combination with P4075EC+EDTA; for Overall synergy result: Burkholderia
Acinetobacter strains = test: Checkerboard synergy study (FIC/FBC index); assay type: cell-based, Acinetobacter baumannii; settings: in combination with P4075EC+EDTA; for Overall synergy result: Acinetobacter
[5] = test system: Stenotrophomonas maltophilia; test: MIC determination, CLSI microdilution with alamar blue; assay type: cell-based; settings: Stenotrophomonas maltophilia (n = 5); nanoemulsions in the presence of 5 mM EDTA; in µg/mL
Pseudomonas aeruginosa [6] = test: as above; assay type: cell-based; settings: Pseudomonas aeruginosa (n = 5); nanoemulsions in the presence of 5 mM EDTA; in µg/mL
[7] = test system: Stenotrophomonas maltophilia; test: MIC and MBC determination (CLSI, alamar blue), CF isolates
Proteus mirabilis = test: MIC determination, CLSI microdilution with alamar blue; assay type: cell-based; settings: Proteus mirabilis (n = 5); nanoemulsions in the presence of 5 mM EDTA; in µg/mL
Burkholderia cepacia = test: as above; assay type: cell-based; settings: Burkholderia cepacia (n = 5); nanoemulsions in the presence of 5 mM EDTA
[8] = share of 10 Stenotrophomonas strains with synergy
[9] = share of 10 Burkholderia strains with synergy
[10] = share of 10 Acinetobacter strains with synergy

## NCc1ccc(S(N)(=O)=O)cc1 [Sulfamylon, mafenide acetate]
[1]; 32 hours
  level of IL-10 or TGF-β in the infected burn wound: did not suppress
[1]; infected burn wound
  dermal levels of proinflammatory cytokines IL-6, TNF-α, CINC-1 or CINC-3 compared to controls: did not result in any significant alteration
Myeloperoxidase
  myeloperoxidase: 0.08 ± 0.02 µg/mL

## Colistin
Acinetobacter baumannii [2]
  MIC Range: <=0.5-2
Acinetobacter baumannii [3]; 10 CF Acinetobacter isolates
  MBC 50: 4 mg/L
  MBC 90: >16 mg/L
  MIC 50: 1 mg/L
  MIC 90: 1 mg/L
Acinetobacter baumannii [3]; A. baumannii
  MBC 90: > 16 mg/L
  MIC 90: 1 mg/L
Acinetobacter baumannii [3]; Acinetobacter
  MBC 50: 4 mg/L
  MBC 90: >16 mg/L
  MIC 50: 1 mg/L
  MIC 90: 1 mg/L
Burkholderia cenocepacia; B. cenocepacia
  MBC 90: > 32 mg/L
  MIC 90: > 32 mg/L
Burkholderia cenocepacia; Burkholderia
  MBC 50: >32 mg/L
  MBC 90: >32 mg/L
  MIC 50: >32 mg/L
  MIC 90: >32 mg/L
Burkholderia cenocepacia; CF Burkholderia isolate NB26
  MIC: >32 mg/L
Stenotrophomonas strains
  Overall synergy result: Synergy
Stenotrophomonas strains; isolate NB42
  FIC: 0.08
  Synergy (FBC): indifferent
  Synergy (FIC): yes
Stenotrophomonas strains; isolate NB43
  FBC: 0.15
  FIC: 0.08
  Synergy (FBC): yes
  Synergy (FIC): yes
Stenotrophomonas strains; isolate NB44
  FBC: 0.57
  Synergy (FBC): indifferent
  Synergy (FIC): indifferent
Stenotrophomonas strains; isolate NB45
  FBC: 0.45
  FIC: 0.04
  Synergy (FBC): yes
  Synergy (FIC): yes
Stenotrophomonas strains; isolate Steno 1
  Synergy (FBC): yes and indifferent
  Synergy (FIC): yes and indifferent
Stenotrophomonas strains; isolate Steno 2
  Synergy (FBC): yes and indifferent
  Synergy (FIC): yes
Stenotrophomonas strains; isolate Steno 3
  Synergy (FBC): yes and indifferent
  Synergy (FIC): yes and indifferent
Stenotrophomonas strains; isolate Steno 4
  FBC: 1.61
  Synergy (FBC): indifferent
  Synergy (FIC): yes and indifferent
Stenotrophomonas strains; isolate Steno 6
  Synergy (FBC): yes and indifferent
  Synergy (FIC): yes and indifferent
Stenotrophomonas strains; isolate Steno 8
  Synergy (FBC): yes and indifferent
  Synergy (FIC): yes and indifferent
Stenotrophomonas strains; [8]
  % FBC Synergy: 70%
  % FIC Synergy: 90%
Pseudomonas aeruginosa [4]; P. aeruginosa
  MBC 90: 8 mg/L
  MIC 90: 2 mg/L
Pseudomonas aeruginosa [4]; Pseudomonas
  MBC 50: 4 mg/L
  MBC 90: 8 mg/L
  MIC 50: 2 mg/L
  MIC 90: 2 mg/L
Burkholderia strains
  Overall synergy result: No Interference
Burkholderia strains; isolate NB21
  Synergy (FBC): indifferent
  Synergy (FIC): indifferent
Burkholderia strains; isolate NB22
  Synergy (FBC): indifferent
  Synergy (FIC): indifferent
Burkholderia strains; isolate NB23
  FBC: 2.00
  Synergy (FBC): indifferent
  Synergy (FIC): indifferent
Burkholderia strains; isolate NB24
  FBC: 2.00
  Synergy (FBC): indifferent
  Synergy (FIC): indifferent
Burkholderia strains; isolate NB25
  FBC: 3.00
  FIC: 2.00
  Synergy (FBC): indifferent
  Synergy (FIC): indifferent
Burkholderia strains; isolate NB26
  FBC: 0.04
  FIC: 0.56
  Synergy (FBC): yes
  Synergy (FIC): yes
Burkholderia strains; isolate NB27
  Synergy (FBC): indifferent
  Synergy (FIC): indifferent
Burkholderia strains; isolate NB28b
  FIC: 0.29
  Synergy (FBC): indifferent
  Synergy (FIC): yes
Burkholderia strains; isolate NB29
  Synergy (FBC): indifferent
  Synergy (FIC): indifferent
Burkholderia strains; isolate NB30
  FIC: 0.02
  Synergy (FBC): indifferent
  Synergy (FIC): yes
Burkholderia strains; [9]
  % FBC Synergy: 10%
  % FIC Synergy: 30%
Acinetobacter strains
  Overall synergy result: No Interference
Acinetobacter strains; isolate NB31
  FIC: 0.83
  Synergy (FBC): indifferent
  Synergy (FIC): indifferent
Acinetobacter strains; isolate NB32
  FIC: 0.58
  Synergy (FBC): indifferent
  Synergy (FIC): indifferent
Acinetobacter strains; isolate NB33
  FBC: 2
  FIC: 0.33
  Synergy (FBC): indifferent
  Synergy (FIC): yes
Acinetobacter strains; isolate NB34
  FBC: 1.10
  FIC: 0.46
  Synergy (FBC): indifferent
  Synergy (FIC): yes
Acinetobacter strains; isolate NB35
  FBC: 0.97
  FIC: 0.72
  Synergy (FBC): indifferent
  Synergy (FIC): indifferent
Acinetobacter strains; isolate NB36
  FBC: 2
  FIC: 0.56
  Synergy (FBC): indifferent
  Synergy (FIC): indifferent
Acinetobacter strains; isolate NB37
  FBC: 1.00
  FIC: 0.63
  Synergy (FBC): indifferent
  Synergy (FIC): indifferent
Acinetobacter strains; isolate NB38
  FBC: 0.68
  FIC: 0.77
  Synergy (FBC): indifferent
  Synergy (FIC): indifferent
Acinetobacter strains; isolate NB39
  FIC: 0.72
  Synergy (FBC): indifferent
  Synergy (FIC): indifferent
Acinetobacter strains; isolate NB40
  FBC: 0.91
  FIC: 0.63
  Synergy (FBC): indifferent
  Synergy (FIC): indifferent
Acinetobacter strains; [10]
  % FBC Synergy: 0%
  % FIC Synergy: 20%
[5]
  MIC Range: <=0.5-1
Pseudomonas aeruginosa [6]
  MIC Range: <=0.5-2
[7]; S. maltophilia
  MBC 90: > 32 mg/L
  MIC 90: > 32 mg/L
[7]; Stenotrophomonas
  MBC 50: >32 mg/L
  MBC 90: >32 mg/L
  MIC 50: 16 mg/L
  MIC 90: >32 mg/L

## Piperacillin/tazobactam
Proteus mirabilis
  MIC Range: <=0.5-1

## NC[C@H]1O[C@H](O[C@H]2[C@H](O)[C@@H](O[C@H]3O[C@H](CO)[C@@H](O)[C@H](N)[C@H]3O)[C@H](N)C[C@@H]2N)[C@H](N)C[C@@H]1O [Tobramycin]
Acinetobacter baumannii [3]; Acinetobacter
  MIC 50: 1 mg/L (≈ 2.14 µM)
  MIC 90: 16 mg/L (≈ 34.2 µM)
Burkholderia cenocepacia; Burkholderia
  MIC 90: >32 mg/L
Burkholderia cenocepacia; Burkholderia cenocepacia
  MIC 50: > 32 mg/L
  MIC 90: > 32 mg/L
Stenotrophomonas strains
  Overall synergy result: No Interference
Pseudomonas aeruginosa [4]; Pseudomonas
  MIC 50: 1 mg/L (≈ 2.14 µM)
  MIC 90: 16 mg/L (≈ 34.2 µM)
Burkholderia strains
  Overall synergy result: No Interference
Acinetobacter strains
  Overall synergy result: No Interference
Burkholderia cepacia
  MIC 50: 16 mg/L
[7]; Stenotrophomonas
  MIC 50: >32 mg/L
  MIC 90: >32 mg/L
[7]; Stenotrophomonas maltophilia
  MIC 50: > 32 mg/L
  MIC 90: > 32 mg/L
